In patent publication US20040059104A1, “Nucleotide mimics and their prodrugs” (priority 2002, published 2004):
Where two headings read alike, the source gives them in different places. One block for each molecule: values may come before it.

Key:
[1] = molecular target: Ribonucleotide Reductase (RNR R1/R2) (Escherichia coli, UniProt P00452); test: Ribonucleotide Reductase inhibition assay (coupled NADPH oxidation); format: biochemical
Experimental: The assays employed to measure inhibition of Ribonucleotide Reductase (RNR) activity are described below. The effectiveness of the compounds of the present invention as inhibitors of RNR enzyme was determined using the following assays.
This assay was used to measure the ability of the nucleotide mimics of the present invention to inhibit the enzymatic reaction catalyzed by RNR enzyme. In the reduction of cytidine 5′-diphosphate (CDP) to 2′-deoxycytidine 5′-diphosphate (dCDP), stoichiometric amounts of oxidized thioredoxin are formed. This protein is reduced by NADPH in a reaction catalyzed by thioredoxin reductase. By coupling the two reactions, RNR activity was measured by spectrophotometric determination of NADPH oxidation at 340 nm using a UV/VIS spectrophotometer. […]
The standard RNR assay is performed in a 96-well plate (Corning). […] The oxidation of NADPH was monitored at 340 nm on a microplate spectrophotometer (Molecular Devices Corp, Sunnyvale, Calif.). […]
The percentage of inhibition was calculated according to the following equation: […]
Each inhibitor was titrated over an appropriate range of concentrations, and IC50 values were determined using the equation: […]

[2] = Mammalian cell growth inhibition assay (MTT cytotoxicity); format: cell-based, Human; details: human; CCRF-CEM cells, 72 hr, MTT; read-out: Cytotoxicity IC50 (antiproliferative effect)
Experimental: (§1) The assays employed for determining the cytotoxicity of the nucleotide mimics of the present invention to mammalian cells are described below.
(§2) Human CCRF-CEM cells were obtained from American Tissue Culture Collection (ATCC) and grown according to ATCC specifications. […] CEM cells were grown at 37° C. in a 95% humidified environment and 5% CO2 atmosphere.
(§3) MTT is water soluble tetrazolin salt that is converted to an insoluble purple formazan by active mitochondrial dehydrogenases of living cells. […] Conversion of MTT into the insoluble formazan by non-treated control or treated cells was monitored at 540 nm.
(§4) CCRF-CEM cells (3×10^4) were plated in 96-well plates in RPMI media. The next day, cells were incubated with different concentrations (0-200 μM) of the nucleotide mimics of the present invention for 72 hr. Following treatment, MTT (2 mg/ml in PBS) dye was added to each well so that the final concentration was 0.5 mg/ml and then incubated for 4 hr at 37° C. Media and MTT dye were removed without disturbing the cells and 100% DMSO was added to dissolve the precipitate. After a 10 minute incubation at room temperature, the optical density values were measured at 540 nm, using the Spectra Max Plus plate reader. Survival was expressed as the percentage of viable cells in treated samples relative to non-treated control cells.

Staphylococcus aureus = test: Antimicrobial assay, minimal inhibitory concentration; format: cell-based; details: Staphylococcus aureus, read-out: S. aureus MIC
Procedure, shortened: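 E. coli and S. aureus grown overnight at 37° C were first screened by disc diffusion on Nutrient Broth agar lawns. MIC was then read after overnight incubation at 37° C as the lowest compound concentration giving no increase in absorbance at 600 nm.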

in vitro = details: bovine, serum, Half-Life, Serum Half-Lives of Gemcitibine Diphosphate Mimics and Their Prodrugs
CCRF-CEM cells = test: Mammalian cell growth inhibition assay (MTT cytotoxicity); format: cell-based, Human
Experimental: as §1, §2, §3, §4

Chain of Ribonucleotide Reductase (RNR R1/R2) (P69924 2-376): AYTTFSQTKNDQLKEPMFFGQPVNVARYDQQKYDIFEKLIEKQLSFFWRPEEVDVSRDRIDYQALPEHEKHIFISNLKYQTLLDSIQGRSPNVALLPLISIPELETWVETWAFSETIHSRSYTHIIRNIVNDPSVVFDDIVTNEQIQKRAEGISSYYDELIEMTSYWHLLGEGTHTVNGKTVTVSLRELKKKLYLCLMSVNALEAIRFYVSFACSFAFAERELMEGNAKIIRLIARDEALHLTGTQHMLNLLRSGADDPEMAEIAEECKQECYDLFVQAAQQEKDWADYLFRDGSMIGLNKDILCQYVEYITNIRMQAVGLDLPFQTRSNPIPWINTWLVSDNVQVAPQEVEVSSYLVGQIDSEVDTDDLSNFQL
Chain of Ribonucleotide Reductase (RNR R1/R2) (P00452 whole entry): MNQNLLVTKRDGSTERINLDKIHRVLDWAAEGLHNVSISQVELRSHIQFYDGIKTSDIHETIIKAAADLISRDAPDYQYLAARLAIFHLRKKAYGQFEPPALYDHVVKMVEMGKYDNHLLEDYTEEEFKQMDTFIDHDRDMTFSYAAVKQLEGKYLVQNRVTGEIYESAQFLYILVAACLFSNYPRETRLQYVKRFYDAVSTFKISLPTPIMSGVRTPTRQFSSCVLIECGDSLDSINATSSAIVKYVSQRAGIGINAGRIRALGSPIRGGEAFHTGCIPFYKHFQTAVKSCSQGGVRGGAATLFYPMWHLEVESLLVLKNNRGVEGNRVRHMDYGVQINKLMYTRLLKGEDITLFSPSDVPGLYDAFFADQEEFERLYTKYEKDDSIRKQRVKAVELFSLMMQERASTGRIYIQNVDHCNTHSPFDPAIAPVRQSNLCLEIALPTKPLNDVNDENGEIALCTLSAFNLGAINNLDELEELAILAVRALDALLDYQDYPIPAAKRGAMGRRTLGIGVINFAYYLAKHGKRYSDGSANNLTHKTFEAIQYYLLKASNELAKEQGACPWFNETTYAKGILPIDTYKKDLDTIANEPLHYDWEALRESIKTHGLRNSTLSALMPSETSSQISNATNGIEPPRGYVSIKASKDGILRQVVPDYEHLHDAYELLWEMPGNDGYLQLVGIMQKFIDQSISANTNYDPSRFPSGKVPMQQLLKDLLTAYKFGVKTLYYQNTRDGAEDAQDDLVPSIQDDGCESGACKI

SMILES: Nc1ccn([C@@H]2O[C@H](COP(=O)(O)NP(=O)(O)O)[C@@H](O)/C2=C\F)c(=O)n1 [Compound 3, 2′-Deoxy-(E)-2′-fluoromethylenecytidine 5′-imidodiphosphate]
IC50 ([1]; 3-minute inactivation, then assay with 1 mM CDP, read-out: IC50, Inhibition of Ribonucleotide Reductase by Nucleotide Mimics): 8.9 µM

MIC (Staphylococcus aureus; overnight at 37° C., tested 0-200 μg/ml, NA = Not active): > 200 mg/L
MIC (Staphylococcus aureus; value in brackets beside the μg/ml value): > 475 µM
half-life at 500 μM (in vitro): > 48 h
SMILES: Nc1ccn([C@@H]2O[C@H](COP(=O)(O)CP(=O)(O)O)[C@@H](O)C2(F)F)c(=O)n1 [Compound 5, 2′-Deoxy-2′,2′-difluorocytidine-5′-methylenediphosphonate]
IC50 at 72 h [2]: 4.8 µM

SMILES: Nc1ccn([C@@H]2O[C@H](COP(=O)(O)NP(=O)(O)O)[C@@H](O)C2(F)F)c(=O)n1 [Compound 6, 2′-Deoxy-2′,2′-difluorocytidine 5′-imidodiphosphate]
IC50 [1]: 12.6 µM
half-life at 500 μM (in vitro): 15 h

SMILES: CC(C)(C)C(=O)SCCOP(=O)(CP(=O)(OCCSC(=O)C(C)(C)C)OCC1OC(n2ccc(N)nc2=O)C(F)(F)C1O)OCCSC(=O)C(C)(C)C (stereo not drawn) [Compound 77, 2′-deoxy-2′,2′-difluorocytidine 5′-tri-O—(S-pivaloyl-2-thioethyl)-α,β-methylenediphosphonate]
IC50 (CCRF-CEM cells): 0.1 µM

SMILES: Nc1ccn([C@@H]2O[C@H](CO)[C@@H](O)C2(F)F)c(=O)n1 [Gemcitabine, 2′-deoxy-2′,2′-difluorocytidine, reference compound]
IC50 at 72 h [2]: 0.035 µM
